Results on four molecules are retold here after patent US10065990B2, “Cyclic peptide compound, and preparation method, pharmaceutical composition and use thereof” (HANGZHOU GUANYU BIO-MEDICAL CO., LTD, priority 2013, dated 2018).

The GI50 is the concentration giving 50% growth inhibition.

One test addresses T1, HDAC7 (Homo sapiens, UniProt Q8WUI4).
T1 sequence (Q8WUI4 1-952): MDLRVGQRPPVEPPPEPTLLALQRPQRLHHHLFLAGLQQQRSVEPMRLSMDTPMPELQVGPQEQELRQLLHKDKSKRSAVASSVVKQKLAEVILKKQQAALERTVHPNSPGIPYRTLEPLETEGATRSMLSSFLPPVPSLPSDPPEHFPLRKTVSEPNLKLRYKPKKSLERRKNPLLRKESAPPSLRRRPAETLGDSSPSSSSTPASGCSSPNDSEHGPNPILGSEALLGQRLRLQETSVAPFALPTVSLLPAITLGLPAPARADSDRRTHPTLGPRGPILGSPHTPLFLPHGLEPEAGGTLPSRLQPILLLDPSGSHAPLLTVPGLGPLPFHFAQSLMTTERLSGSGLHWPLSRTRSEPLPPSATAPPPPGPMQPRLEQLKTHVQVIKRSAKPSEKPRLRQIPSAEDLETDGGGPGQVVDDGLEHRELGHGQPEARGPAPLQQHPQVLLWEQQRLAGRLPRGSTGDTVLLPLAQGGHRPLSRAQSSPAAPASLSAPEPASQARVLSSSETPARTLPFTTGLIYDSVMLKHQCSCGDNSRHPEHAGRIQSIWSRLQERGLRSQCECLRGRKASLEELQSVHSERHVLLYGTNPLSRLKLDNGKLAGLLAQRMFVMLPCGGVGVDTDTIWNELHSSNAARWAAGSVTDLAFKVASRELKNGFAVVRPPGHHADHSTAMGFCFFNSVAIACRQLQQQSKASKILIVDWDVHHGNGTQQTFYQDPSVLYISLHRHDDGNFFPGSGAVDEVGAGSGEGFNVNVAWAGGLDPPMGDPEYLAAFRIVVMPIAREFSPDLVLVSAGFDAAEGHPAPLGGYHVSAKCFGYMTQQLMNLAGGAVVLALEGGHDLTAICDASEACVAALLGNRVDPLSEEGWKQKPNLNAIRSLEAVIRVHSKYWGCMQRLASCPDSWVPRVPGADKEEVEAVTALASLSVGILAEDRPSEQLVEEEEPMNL
As to the kind of experiment: HDAC biochemical activity measurement (fluorescent substrate deacetylation).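 Further: fluorogenic deacetylation assay using acetyl-lysine substrate at 20 µM, enzyme and compound incubated 30 min at 37 °C, then developer added, fluorescence read at 360/460 nm.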 To be noted: HDAC7; 37° C. 30 minutes.

The test system of test [1] is A549 (human lung cancer cells). Briefly: MTT cancer cell growth inhibition. It is filed as cell-based. Particulars: Homo sapiens, A549, 72 h, MTT, 72 hours incubation, read-out: GI50 A54. The method in brief: (§1)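 Using a 72 h MTT format, triplicate wells of 1500 cells received compound concentrations from 10^−5 to 10^−10 M. Formazan was read at 570 nm after DMSO dissolution, and GI50 was derived from viability.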

In test [2] the test system is BGC-823 (human gastric cancer cells). Briefly: MTT cancer cell growth inhibition. Format: cell-based. To be noted: Homo sapiens, BGC-823, 72 h, MTT, 72 hours incubation, read-out: GI50 BG. The method in brief:
as §1

Test [3] has as its system Bel-7402 (human hepatoma cells). As to the kind of experiment: MTT cancer cell growth inhibition. Format: cell-based. To be noted: Homo sapiens, Bel-7402, 72 h, MTT, 72 hours incubation, Bel-7402 cells; read-out: GI50 Bel-7402. The essentials:
as §1

For test [4], the system named is DU145 (human prostate cancer cells). As to the kind of experiment: MTT cancer cell growth inhibition. Format: cell-based. Particulars: Homo sapiens, DU-145, 72 h, MTT, 72 hours incubation, read-out: GI50 Du1. The essentials: as §1
Test [5] relates to H1975 (non-small cell lung adenocarcinoma). As to the kind of experiment: MTT cancer cell growth inhibition. Format: cell-based. Particulars: Homo sapiens, NCI-H1975, 72 h, MTT, 72 hours incubation, H1975 cells; read-out: GI50 H1975. The method in brief: as §1
Test [6] relates to HCC827 (human non-small cell lung cancer cells). As to the kind of experiment: MTT cancer cell growth inhibition. Format: cell-based. Particulars: Homo sapiens, HCC827, 72 h, MTT, 72 hours incubation, HCC827 cells; read-out: GI50 HCC827. The method in brief: as §1
Test [7] deals with HT1080 (human fibrosarcoma cells). As to the kind of experiment: MTT cancer cell growth inhibition. It is filed as cell-based. Particulars: Homo sapiens, HT-1080, 72 h, MTT, 72 hours incubation, read-out: GI50 HT1. The method in brief: as §1
In test [8] the test system is Hela (human cervical cancer cells). Briefly: MTT cancer cell growth inhibition. Format: cell-based. To be noted: Homo sapiens, HeLa, 72 h, MTT, 72 hours incubation, read-out: GI50 Hela. The method in brief: as §1
Test [9] has as its system Huh-7 (human hepatoma cells). As to the kind of experiment: MTT cancer cell growth inhibition. It is filed as cell-based. To be noted: Homo sapiens, Huh-7, 72 h, MTT, 72 hours incubation, Huh-7 cells; read-out: GI50 Huh-7. The method in brief: as §1
Test [10] has as its system K562 (human leukemia cells). Briefly: MTT cancer cell growth inhibition. It is filed as cell-based. To be noted: Homo sapiens, K562, 72 h, MTT, 72 hours incubation, K562 cells; read-out: GI50 K562. The method in brief:
as §1

Test [11] has as its system KBM-5 (human chronic myelogenous leukemia). Briefly: MTT cancer cell growth inhibition. Format: cell-based. To be noted: Homo sapiens, KBM5, 72 h, MTT, 72 hours incubation, KBM-5 cells; read-out: GI50 KBM-5. The essentials:
as §1

For test [12], the system named is KBM5-T315I (human chronic myelogenous leukemia). Briefly: MTT cancer cell growth inhibition. It is filed as cell-based. Particulars: Homo sapiens, 72 h, MTT, 72 hours incubation, KBM5-T315I cells; read-out: GI50 KBM5-T315I. The essentials: as §1
The subject of test [13] is MCF-7 (human breast cancer cells). As to the kind of experiment: MTT cancer cell growth inhibition. Format: cell-based. To be noted: Homo sapiens, MCF7, 72 h, 72 hours incubation, read-out: GI50 MCF. The essentials: as §1
Test [14] deals with MDA-MB-231 (breast cancer cells). Briefly: MTT cancer cell growth inhibition. Format: cell-based. Particulars: Homo sapiens, MDA-MB-231, 72 h, read-out: GI50 MDA-MB-231, MTT, 72 hours incubation, MDA-MB-231 cells. The method in brief:
as §1

Test [15] deals with MOLT-4 (human acute lymphoblastic leukemia cells). Briefly: MTT cancer cell growth inhibition. Format: cell-based. Particulars: Homo sapiens, MOLT-4, 72 h, MTT, 72 hours incubation, read-out: GI50 Mol. The essentials:
as §1

The subject of test [16] is N-87 (human gastric cancer cells). Briefly: MTT cancer cell growth inhibition. To be noted: Homo sapiens, 72 h, MTT, 72 hours incubation, N-87 cells; read-out: GI50 N-87. Format: cell-based. The essentials:
as §1

Test [17] relates to PANC-1 (Pac-1, human pancreatic cancer cells). As to the kind of experiment: MTT cancer cell growth inhibition. It is filed as cell-based. To be noted: Homo sapiens, PANC-1, 72 h, MTT, 72 hours incubation, read-out: GI50 PAN. The essentials:
as §1

In test [18] the test system is SGC-7901 (human gastric cancer cells). As to the kind of experiment: MTT cancer cell growth inhibition. It is filed as cell-based. To be noted: Homo sapiens, SGC-7901, 72 h, MTT, 72 hours incubation, SGC-7901 cells; read-out: GI50 SGC-7901. The essentials:
as §1

In test [19] the test system is U937 (human leukemia cells). As to the kind of experiment: MTT cancer cell growth inhibition. Particulars: Homo sapiens, U-937, 72 h, MTT, 72 hours incubation, read-out: GI50 U93. Format: cell-based. The essentials: as §1
The test system of test [20] is lncap (prostate cancer cells). Briefly: MTT cancer cell growth inhibition. It is filed as cell-based. Particulars: Homo sapiens, LNCaP, 72 h, MTT, 72 hours incubation, read-out: GI50 lnca. The essentials:
as §1

SMILES strings stand for the structures. Where two headings read alike, the source gives them in different places.

For `C/C=C1\NC(=O)c2nc(ccc2SC)CNC(=O)C[C@@H](/C=C/CCSC(C)=O)OC(=O)[C@H](CC)NC1=O` [Compound 177], the “IC50 HDAC7” value at HDAC7 was “no activity”. Also, the 50% growth inhibitory concentration (GI50) worked out at 20 nM in test [1] (A549 cells); 40 nM in [2] (BGC-823 cells); 84 nM in test [3]; 60 nM in test [4] (DU145 cells); 83 nM in [5]; 33 nM in [6]. In addition, the concentration for 50% growth inhibition (GI50) stood at 30 nM in [7] (HT1080 cells); 100 nM in [8] (Hela cells); 35 nM in test [9]; 29 nM in [10]; 80 nM in test [11]; 13 nM in test [12]. Besides, the GI50 in test [13] (MCF-7 cells) is 50 nM; in test [14], 49 nM; in [15] (MOLT-4 cells), 60 nM; in test [16], 37 nM; in test [17] (PANC-1 cells) it was 20 nM; in test [18] it was 39 nM. Besides, the concentration for 50% growth inhibition (GI50) is 60 nM in [19] (U937 cells) and 10 nM in test [20] (lncap cells).
Regarding `C/C=C1\NC(=O)c2nc(ccc2F)CNC(=O)C[C@@H](/C=C/CCSC(=O)CCCCCCC)OC(=O)[C@H](Cc2ccccc2)NC1=O` [Example 69], the “IC50 HDAC7” value against HDAC7 was “no activity”. For the same molecule, the GI50 in test [1] was found to be 30 nM; in test [2] it was 50 nM; in [3], 74 nM; in [4], 40 nM; in test [5] it was 43 nM; in test [6], 74 nM. The GI50 in test [7] was determined as 70 nM; in test [8], 80 nM; in test [9], 35 nM; in test [10], 41 nM; in test [11] it was 81 nM; in test [12], 29 nM. The GI50 in [13] worked out at 20 nM; in test [14] it was 35 nM; in [15], 30 nM; in test [16] it was 52 nM; in test [17] it was 70 nM; in test [18], 36 nM. Moreover, the values for the concentration for 50% growth inhibition (GI50) in test [19] and in test [20] were 40 nM and 30 nM, respectively.
As to `C/C=C1\NC(=O)c2cc(SC)cc(n2)CNC(=O)C[C@@H](/C=C/CCSC(C)=O)OC(=O)[C@H](Cc2ccc(O)cc2)NC1=O` [Compound 202], the “IC50 HDAC7” value against HDAC7 is “no activity”. Besides, the GI50 in [1] (A549 cells) stood at 50 nM; in test [2] (BGC-823 cells), 40 nM; in test [3], 76 nM; in test [4] (DU145 cells), 70 nM; in [5] it was 58 nM; in [6], 32 nM. The GI50 in test [7] (HT1080 cells) amounted to 30 nM; in test [8] (Hela cells) it was 20 nM; in test [9], 31 nM; in test [10], 15 nM; in test [11] it was 38 nM; in [12], 26 nM. Further, the GI50 was 30 nM in [13] (MCF-7 cells); 41 nM in [14]; 50 nM in test [15] (MOLT-4 cells); 29 nM in test [16]; 30 nM in test [17] (PANC-1 cells); 31 nM in test [18]. The GI50 in test [19] (U937 cells) and in [20] (lncap cells) was 20 nM throughout.
As for `C/C=C1\NC(=O)c2cccc(n2)CNC(=O)C[C@@H](/C=C/CCSC(C)=O)OC(=O)[C@@H](C)NC1=O` [Example 25], the “IC50 HDAC7” value at HDAC7 is on record as “no activity”. Further, the concentration for 50% growth inhibition (GI50) in test [1] turned out to be 15400 nM; in test [2], 3300 nM; in test [3] it was 93 nM; in test [4], 1300 nM; in [5], 42 nM; in [6], 33 nM. Further, the GI50 in test [7] turned out to be 39200 nM; in test [8] it was 67700 nM; in test [9], 62 nM; in test [10] it was 27 nM; in [11], 59 nM; in test [12] it was 29 nM. The GI50 in test [13] stood at 53600 nM; in [14], 92 nM; in test [15], 300 nM; in [16], 38 nM; in [17] it was 550 nM; in [18] it was 29 nM. Further, the GI50 in test [19] came to 2290 nM; in test [20], 700 nM.
